{
  "source": "paper PMC10590383",
  "about": "“Repurposing conformational changes in ANL superfamily enzymes to rapidly generate biosensors for organic and amino acids” (Nature Communications, 2023)",
  "experiment": "Dose–response curve of purified […]s with isoleucine",
  "format": "biochemical",
  "parameters": "key to Dose-response, AVE of Repeat 1-3 (Fig. 3 i): normalized ΔF/F0 (fluorescence change over baseline)",
  "conditions": "for fluorescence response of GECFINDER, AVE of 3 repeats: Supplementary Fig. 3 g",
  "description": "Fig. 3 Dose–response curves and fluorescence spectrums of […]s. a, c, e, g, i, k Dose–response curve of purified […]s with increasing concentrations of ligand in 100 mM Tris-HCl buffer (pH=7.5). The normalized ΔF/F0 value increased after ligand binding. All data shown are mean ± S.D. (n = 3 biologically independent samples). b, d, f, h, j, l The fluorescence spectra of […]s changed as the ligand concentration increased. All data shown are mean ± S.D. (n = 3 biologically independent samples). Source data are provided as a Source data file.\nThe study conducted dose–response curve, substrate specificity, and fluorescent spectrum analyses in 100-mM Tris buffer (pH = 7.5), while pH stability experiments were performed in 100-mM Tris buffer at three different pH values (6.5, 7.5, and 8.5) at room temperature. […] protein at a concentration of 0.75 μM, various small molecule concentrations, 1 mM ATP, and 2.5 mM MgCl2 were used in the experiments. Fluorescent signals were detected using a Microplate Reader (Synergy H4, Bio Tek) at an excitation/emission wavelength of 460 nm/510 nm or 480 nm/510 nm. The dose-response curve was determined immediately after the addition of the analyte. The total duration of the measurement was 15 min, with readings taken at one-minute intervals. The dose-response curve was plotted using the fluorescence values obtained after achieving stability in the fluorescence signal. The dose-response curves were fitted using the logistic model LOGISTIC5 available in Origin 2021, which could provide a more adequate fit to asymmetric dose-response data[62],[63]. Excitation spectra were scanned from 300 to 540 nm with a step size of 5 nm, and the emission wavelength was set to 560 nm. Emission spectra were scanned from 470 to 700 nm with a step size of 5 nm, and the excitation wavelength was set to 450 nm. The thermal stability of […] was analyzed using the UNcle multifunctional protein stability analysis system. Measurements were performed in 20 mM MOPS buffer with 2 mM DTT at a sample concentration of 1 mg/mL. Absolute fluorescence quantum yields were measured using an absolute photoluminescence quantum yield spectrometer (FS5, Edinburgh). […]\nIle (μM) Wave le ngth( nm ) Ile (μM) Wave le ngth( nm )\nSupplementary Fig. 2 Dose–response curves and fl uorescen ce spectr ums of GEC FINDERs. a and c, Dose– re spons e curves of puri fi ed GECF INDE R-P he1 and 2 with increas ing concen tra tions of phenylalanine (1 nM to 100 μM). The norm alized ΔF/F 0 value increas ed aft er phenylalanine binding (4 60 nm excita tion) . b and d, The fl uore scen ce spect ra of GECF IN DER-P he1 and 2 changed as the phe nylalanine concen tra tion incre ased fro m 1 nM to 100 μM. e and g, Dose–re spon se curv es of puri fied GECF IN DER-Il e1 and 2 with increas ing concen tra tio ns of isoleucine (50 nM to 10 mM). The norm alized ΔF/F 0 value increas ed aft er isoleucine binding (4 80 nm excita tion) . f and h, The fl uore scen ce spect ra of GECF INDE R-Il e1 and 2 change d as the isoleucine concen tration increas ed fro m 0.5 μM to 10 mM. i, Dose–re spon se curv e of puri fi ed GECF INDE R-H is1 with increas ing concen tra tio ns of histid ine (5 nM to 1 mM). The Norm alized ΔF/F 0 increas ed aft er histidine binding (480 nm excita tion). j, The fl uore scen ce spect ra of GECFIN DER-H is1 changed as the histid ine concen tra tion increas ed fro m 5 nM to 1 mM. k, Diffe re nce in fl uore scen ce intensity of GECF INDE R-b enzoic aci d in the pre sence of 10 µM benzoic aci d compare d to the cont ro l (0 µM benzoic aci d). […] (n=3 biological ly independent samples). *p ≤ 0.05, ***p ≤ 0.001, ****p ≤ 0.0001, and n.s. indicat ed no signifi can t diffe re nce (S tude nt’s two-t aile d t-t est). Source data are provi ded as a Source Data file . […]",
  "data": [
    {"smiles": "CC[C@H](C)[C@H](N)C(=O)O", "note": "[Ile]", "values": [
      {"measurement": "Dose-response, AVE of Repeat 1-3 (Fig. 3 i)", "setting": "Ile 0.05 μM", "value": 0},
      {"measurement": "Dose-response, AVE of Repeat 1-3 (Fig. 3 i)", "setting": "Ile 0.1 μM", "value": 0.02113},
      {"measurement": "Dose-response, AVE of Repeat 1-3 (Fig. 3 i)", "setting": "Ile 0.5 μM", "value": 0.03402},
      {"measurement": "Dose-response, AVE of Repeat 1-3 (Fig. 3 i)", "setting": "Ile 5 μM", "value": 0.05594},
      {"measurement": "Dose-response, AVE of Repeat 1-3 (Fig. 3 i)", "setting": "Ile 50 μM", "value": 0.1628},
      {"measurement": "Dose-response, AVE of Repeat 1-3 (Fig. 3 i)", "setting": "Ile 100 μM", "value": 0.2049},
      {"measurement": "Dose-response, AVE of Repeat 1-3 (Fig. 3 i)", "setting": "Ile 250 μM", "value": 0.2905},
      {"measurement": "Dose-response, AVE of Repeat 1-3 (Fig. 3 i)", "setting": "Ile 500 μM", "value": 0.3097},
      {"measurement": "Dose-response, AVE of Repeat 1-3 (Fig. 3 i)", "setting": "Ile 1000 μM", "value": 0.3698},
      {"measurement": "Dose-response, AVE of Repeat 1-3 (Fig. 3 i)", "setting": "Ile 5000 μM", "value": 0.4681},
      {"measurement": "Dose-response, AVE of Repeat 1-3 (Fig. 3 i)", "setting": "Ile 7500 μM", "value": 0.4489},
      {"measurement": "Dose-response, AVE of Repeat 1-3 (Fig. 3 i)", "setting": "Ile 10000 μM", "value": 0.4411},
      {"measurement": "fluorescence response of GECFINDER, AVE of 3 repeats", "setting": "Ile 0.05 μM", "value": "-6.245e-17"},
      {"measurement": "fluorescence response of GECFINDER, AVE of 3 repeats", "setting": "Ile 0.1 μM", "value": 0.01149},
      {"measurement": "fluorescence response of GECFINDER, AVE of 3 repeats", "setting": "Ile 0.5 μM", "value": 0.02425},
      {"measurement": "fluorescence response of GECFINDER, AVE of 3 repeats", "setting": "Ile 5 μM", "value": 0.01608},
      {"measurement": "fluorescence response of GECFINDER, AVE of 3 repeats", "setting": "Ile 50 μM", "value": 0.05759},
      {"measurement": "fluorescence response of GECFINDER, AVE of 3 repeats", "setting": "Ile 100 μM", "value": 0.08825},
      {"measurement": "fluorescence response of GECFINDER, AVE of 3 repeats", "setting": "Ile 250 μM", "value": 0.1283},
      {"measurement": "fluorescence response of GECFINDER, AVE of 3 repeats", "setting": "Ile 500 μM", "value": 0.1586},
      {"measurement": "fluorescence response of GECFINDER, AVE of 3 repeats", "setting": "Ile 1000 μM", "value": 0.1861},
      {"measurement": "fluorescence response of GECFINDER, AVE of 3 repeats", "setting": "Ile 5000 μM", "value": 0.2413},
      {"measurement": "fluorescence response of GECFINDER, AVE of 3 repeats", "setting": "Ile 7500 μM", "value": 0.2222},
      {"measurement": "fluorescence response of GECFINDER, AVE of 3 repeats", "setting": "Ile 10000 μM", "value": 0.2208}
    ]}
  ]
}
